The numbers were not newly measured in patent US20040034086A1, “Combination of an allosteric inhibitor of matrix metalloproteinase-13 with celecoxib or valdecoxib” (priority 2002, published 2004), which cites them from elsewhere.

With `Cc1onc(-c2ccccc2)c1-c1ccc(S(N)(=O)=O)cc1` [valdecoxib, 4-(5-methyl-3-phenyl-4-isoxazolyl)-benzenesulfonamide], for the setting “combined analysis of various clinical studies”, the “Tolerability in clinical studies” value is “well tolerated”. In addition, the “Overall upper gastrointestinal safety profile (ulcers, perforations, obstructions and GI bleeds)” value (compared with conventional NSAIDs such as ibuprofen, diclofenac and naproxen) is given as “significantly better than the conventional NSAIDs studied”.
